Data from ChEMBL document CHEMBL3425491, “Development of novel ACK1/TNK2 inhibitors using a fragment-based approach” (J Med Chem, 2015).
Converted amounts (≈) assume the structure as drawn. One block for each molecule: values may come before it. The source made the active and inactive calls. No cut-off for these calls is given here.

Experiments:
Activated CDC42 kinase 1 [1] = target: T1, Activated CDC42 kinase 1 (Homo sapiens, UniProt Q07912); assay: Inhibition of human ACK1 kinase activity using biotinylated ATGRYYAMKIL - AKT peptide substrate assessed as phosphorylation at 10 uM by ELISA; type: single protein
Target sequence in this assay (Q07912 whole entry, looked up): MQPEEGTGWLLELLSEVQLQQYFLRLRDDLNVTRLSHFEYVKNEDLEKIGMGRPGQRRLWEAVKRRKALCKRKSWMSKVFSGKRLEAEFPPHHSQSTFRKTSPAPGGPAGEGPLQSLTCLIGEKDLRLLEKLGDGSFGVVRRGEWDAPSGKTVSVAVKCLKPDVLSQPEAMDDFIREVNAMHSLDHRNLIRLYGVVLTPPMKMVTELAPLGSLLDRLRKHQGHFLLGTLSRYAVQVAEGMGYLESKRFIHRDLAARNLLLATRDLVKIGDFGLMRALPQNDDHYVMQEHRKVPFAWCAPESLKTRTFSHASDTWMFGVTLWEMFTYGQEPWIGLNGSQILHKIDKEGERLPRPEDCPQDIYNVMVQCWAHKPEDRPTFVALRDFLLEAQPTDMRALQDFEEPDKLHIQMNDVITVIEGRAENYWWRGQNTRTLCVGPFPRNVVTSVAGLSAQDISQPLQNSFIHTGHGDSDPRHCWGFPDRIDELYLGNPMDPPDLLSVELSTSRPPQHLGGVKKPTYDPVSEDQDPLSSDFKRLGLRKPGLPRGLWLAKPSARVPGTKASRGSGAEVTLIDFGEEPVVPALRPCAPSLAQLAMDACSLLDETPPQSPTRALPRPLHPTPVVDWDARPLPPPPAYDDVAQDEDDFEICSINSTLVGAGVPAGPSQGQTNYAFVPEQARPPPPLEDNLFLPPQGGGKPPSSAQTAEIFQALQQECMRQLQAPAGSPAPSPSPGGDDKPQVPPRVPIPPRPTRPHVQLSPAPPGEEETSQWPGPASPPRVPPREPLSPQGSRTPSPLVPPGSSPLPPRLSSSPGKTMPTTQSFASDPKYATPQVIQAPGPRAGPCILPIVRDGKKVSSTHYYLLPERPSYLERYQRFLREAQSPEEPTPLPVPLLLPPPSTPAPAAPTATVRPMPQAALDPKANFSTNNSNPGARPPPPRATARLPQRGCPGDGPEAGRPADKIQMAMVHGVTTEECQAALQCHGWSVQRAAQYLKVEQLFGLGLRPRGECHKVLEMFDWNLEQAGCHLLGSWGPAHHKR

Activated CDC42 kinase 1 [2] = target: T1, Activated CDC42 kinase 1; assay: Inhibition of ACK1 kinase (unknown origin)
Target sequence in this assay (Q07912 whole entry): as the sequence (Q07912 whole entry, looked up) above

[3] = target: Tyrosine-protein kinase Lck (Homo sapiens, UniProt P06239)
Tyrosine-protein kinase Lck, sequence (P06239 whole entry): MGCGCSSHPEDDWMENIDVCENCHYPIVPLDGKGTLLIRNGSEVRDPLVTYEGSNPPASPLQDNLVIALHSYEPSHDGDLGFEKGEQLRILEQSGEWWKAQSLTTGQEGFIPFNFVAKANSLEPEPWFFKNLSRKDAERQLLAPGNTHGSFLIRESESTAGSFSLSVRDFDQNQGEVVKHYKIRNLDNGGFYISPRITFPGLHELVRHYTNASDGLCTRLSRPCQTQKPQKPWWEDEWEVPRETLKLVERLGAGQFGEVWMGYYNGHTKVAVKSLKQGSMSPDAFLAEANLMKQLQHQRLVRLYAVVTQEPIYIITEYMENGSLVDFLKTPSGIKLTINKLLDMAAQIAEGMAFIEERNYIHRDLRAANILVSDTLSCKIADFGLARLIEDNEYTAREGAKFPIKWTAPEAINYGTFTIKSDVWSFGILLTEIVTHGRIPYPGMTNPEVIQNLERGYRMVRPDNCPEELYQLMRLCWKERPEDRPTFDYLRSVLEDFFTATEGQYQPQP

LAPC4 = assay: Anticancer activity against human LAPC4 cells assessed as inhibition of cell growth up to 10 uM after 72 hrs by trypan blue exclusion assay; type: functional, cell-based
Plasma = assay: Half life in human plasma; type: ADME, cell-free
[4] = Solubility in PBS with 10% DMSO; type: physicochemical; conditions: buffer
cells = conditions: Homo sapiens, VCaP, 72 h
[5] = target: RAC-alpha serine/threonine-protein kinase (Homo sapiens) (UniProt P31749); assay: Inhibition of human AKT1 using KGSGSGRPRTSSFAEG peptide substrate at 1 uM by 33P Hotspot assay
RAC-alpha serine/threonine-protein kinase (Homo sapiens), sequence (P31749 whole entry): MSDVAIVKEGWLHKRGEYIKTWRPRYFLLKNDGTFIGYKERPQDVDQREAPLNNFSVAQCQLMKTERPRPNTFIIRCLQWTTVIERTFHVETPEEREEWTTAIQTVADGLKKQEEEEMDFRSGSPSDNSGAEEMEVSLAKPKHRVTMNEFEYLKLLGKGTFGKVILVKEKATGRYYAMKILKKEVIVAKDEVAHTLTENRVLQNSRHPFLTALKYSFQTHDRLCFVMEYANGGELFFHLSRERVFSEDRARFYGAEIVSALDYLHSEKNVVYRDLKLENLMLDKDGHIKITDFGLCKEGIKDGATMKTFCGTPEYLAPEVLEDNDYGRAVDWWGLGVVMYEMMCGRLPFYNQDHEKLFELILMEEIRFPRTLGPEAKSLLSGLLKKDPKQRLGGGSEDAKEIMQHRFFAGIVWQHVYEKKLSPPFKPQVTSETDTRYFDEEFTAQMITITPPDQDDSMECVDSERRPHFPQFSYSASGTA

[6] = target: Tyrosine-protein kinase receptor UFO (Homo sapiens) (UniProt P30530); assay: Inhibition of human AXL using EAIYAAPFAKKK peptide substrate at 1 uM by 33P Hotspot assay
[7] = target: Tyrosine-protein kinase BTK (Homo sapiens) (UniProt Q06187); assay: Inhibition of human BTK using […] peptide substrate at 1 uM by 33P Hotspot assay
[8] = target: Hepatocyte growth factor receptor (Homo sapiens) (UniProt P08581); assay: Inhibition of human c-MET using KKKSPGEYVNIEFG peptide substrate at 1 uM by 33P Hotspot assay
[9] = target: Serine/threonine-protein kinase Chk1 (Homo sapiens) (UniProt O14757); assay: Inhibition of human CHK1 using KKKVSRSGLYRSPSMPENLNRPR peptide substrate at 1 uM by 33P Hotspot assay
[10] = target: Mitogen-activated protein kinase kinase kinase 8 (Homo sapiens) (UniProt P41279); assay: Inhibition of human COT1/MAP3K8 using MEK1 (K97R) substrate at 1 uM by 33P Hotspot assay
[11] = target: Tyrosine-protein kinase CSK (Homo sapiens) (UniProt P41240); assay: Inhibition of human CSK using poly[Glu:Tyr] (4:1) peptide substrate at 1 uM by 33P Hotspot assay
[12] = target: Epidermal growth factor receptor (Homo sapiens) (UniProt P00533); assay: Inhibition of human EGFR using poly[Glu:Tyr] (4:1) peptide substrate at 1 uM by 33P Hotspot assay
[13] = target: Ephrin type-A receptor 2 (Homo sapiens) (UniProt P29317); assay: Inhibition of human EPHA2 using poly[Glu:Tyr] (4:1) peptide substrate at 1 uM by 33P Hotspot assay
[14] = target: Receptor tyrosine-protein kinase erbB-2 (Homo sapiens) (UniProt P04626); assay: Inhibition of human ERBB2/HER2 using poly[Glu:Tyr] (4:1) peptide substrate at 1 uM by 33P Hotspot assay
[15] = target: Mitogen-activated protein kinase 3 (Homo sapiens) (UniProt P27361); assay: Inhibition of human ERK1 using myelin basic protein substrate at 1 uM by 33P Hotspot assay
[16] = target: T2, Fibroblast growth factor receptor 1 (Homo sapiens, UniProt P11362); assay: Inhibition of human FGFR1 using KKKSPGEYVNIEFG peptide substrate at 1 uM by 33P Hotspot assay
[17] = target: Tyrosine-protein kinase FRK (Homo sapiens) (UniProt P42685); assay: Inhibition of human FRK/PTK5 using poly[Glu:Tyr] (4:1) peptide substrate at 1 uM by 33P Hotspot assay
[18] = target: Inhibitor of nuclear factor kappa-B kinase subunit alpha (Homo sapiens) (UniProt O15111); assay: Inhibition of human IKKa/CHUK using KKKKERLLDDRHDSGLDSMKDEE peptide substrate at 1 uM by 33P Hotspot assay
[19] = target: Insulin receptor (Homo sapiens) (UniProt P06213); assay: Inhibition of human IR using poly[Glu:Tyr] (4:1) peptide substrate at 1 uM by 33P Hotspot assay
[20] = target: T3, Tyrosine-protein kinase JAK2 (Homo sapiens, UniProt O60674); assay: Inhibition of human JAK2 using poly[Glu:Tyr] (4:1) peptide substrate at 1 uM by 33P Hotspot assay
T3 sequence (O60674 whole entry): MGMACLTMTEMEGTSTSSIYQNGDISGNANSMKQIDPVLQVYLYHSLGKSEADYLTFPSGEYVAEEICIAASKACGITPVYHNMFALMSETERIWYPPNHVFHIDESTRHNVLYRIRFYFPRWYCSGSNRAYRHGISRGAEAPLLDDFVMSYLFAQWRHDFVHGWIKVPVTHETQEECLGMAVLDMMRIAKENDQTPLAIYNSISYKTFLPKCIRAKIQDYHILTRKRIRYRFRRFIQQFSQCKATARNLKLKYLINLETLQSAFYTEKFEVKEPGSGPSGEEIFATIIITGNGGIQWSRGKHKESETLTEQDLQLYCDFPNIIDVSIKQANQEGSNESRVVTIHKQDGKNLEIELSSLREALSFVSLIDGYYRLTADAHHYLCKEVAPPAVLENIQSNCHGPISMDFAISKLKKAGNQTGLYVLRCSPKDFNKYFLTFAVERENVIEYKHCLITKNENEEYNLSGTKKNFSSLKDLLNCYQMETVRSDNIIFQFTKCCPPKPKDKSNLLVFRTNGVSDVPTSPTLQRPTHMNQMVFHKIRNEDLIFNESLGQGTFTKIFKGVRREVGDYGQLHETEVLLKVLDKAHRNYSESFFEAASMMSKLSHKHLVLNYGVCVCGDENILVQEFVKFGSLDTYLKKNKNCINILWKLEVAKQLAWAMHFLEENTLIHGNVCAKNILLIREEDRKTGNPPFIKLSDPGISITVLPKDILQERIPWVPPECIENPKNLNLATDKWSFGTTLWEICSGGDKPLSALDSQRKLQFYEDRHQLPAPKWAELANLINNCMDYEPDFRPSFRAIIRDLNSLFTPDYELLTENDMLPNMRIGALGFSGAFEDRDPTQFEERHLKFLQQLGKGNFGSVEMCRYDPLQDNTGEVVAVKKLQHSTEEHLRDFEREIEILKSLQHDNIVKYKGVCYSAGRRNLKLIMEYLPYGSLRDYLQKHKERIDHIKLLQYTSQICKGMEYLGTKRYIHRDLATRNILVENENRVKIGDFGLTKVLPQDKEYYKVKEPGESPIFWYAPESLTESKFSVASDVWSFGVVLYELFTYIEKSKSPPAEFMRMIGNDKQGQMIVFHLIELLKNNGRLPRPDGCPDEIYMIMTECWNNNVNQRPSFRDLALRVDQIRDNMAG

[21] = target: Vascular endothelial growth factor receptor 2 (Homo sapiens) (UniProt P35968); assay: Inhibition of human KDR/VEGFR2 using poly[Glu:Tyr] (4:1) peptide substrate at 1 uM by 33P Hotspot assay
[22] = target: Serine/threonine-protein kinase mTOR (Homo sapiens) (UniProt P42345); assay: Inhibition of human mTOR/FRAP1 using 4EBP1 peptide substrate at 1 uM by 33P Hotspot assay
[23] = target: Ribosomal protein S6 kinase beta-1 (Homo sapiens) (UniProt P23443); assay: Inhibition of human p70S6K/RPS6KB1 using KKRNRTLTK peptide substrate at 1 uM by 33P Hotspot assay
[24] = target: Platelet-derived growth factor receptor alpha (Homo sapiens) (UniProt P16234); assay: Inhibition of human PDGFRalpha using poly[Glu:Tyr] (4:1) peptide substrate at 1 uM by 33P Hotspot assay
[25] = target: Serine/threonine-protein kinase pim-1 (Homo sapiens) (UniProt P11309); assay: Inhibition of human PIM1 using KKRNRTLTK peptide substrate at 1 uM by 33P Hotspot assay
Serine/threonine-protein kinase pim-1 (Homo sapiens), sequence (P11309 whole entry, looked up): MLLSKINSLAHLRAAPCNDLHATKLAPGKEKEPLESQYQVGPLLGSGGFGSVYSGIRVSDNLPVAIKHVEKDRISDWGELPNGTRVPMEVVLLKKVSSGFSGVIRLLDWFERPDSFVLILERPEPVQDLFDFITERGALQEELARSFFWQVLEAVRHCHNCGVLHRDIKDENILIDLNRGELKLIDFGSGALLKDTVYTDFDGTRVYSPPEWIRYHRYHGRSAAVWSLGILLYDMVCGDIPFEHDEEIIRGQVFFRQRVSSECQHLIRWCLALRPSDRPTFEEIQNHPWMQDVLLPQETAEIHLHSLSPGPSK

[26] = target: RAF proto-oncogene serine/threonine-protein kinase (Homo sapiens) (UniProt P04049); assay: Inhibition of human RAF1 using MEK1 (K97R) peptide substrate at 1 uM by 33P Hotspot assay
[27] = target: Serine/threonine-protein kinase Sgk1 (Homo sapiens) (UniProt O00141); assay: Inhibition of human SGK1 using KGSGSGRPRTSSFAEG peptide substrate at 1 uM by 33P Hotspot assay
[28] = target: Serine/threonine-protein kinase TBK1 (Homo sapiens) (UniProt Q9UHD2); assay: Inhibition of human TBK1 using KRRRAL[pS]VASLPGL peptide substrate at 1 uM by 33P Hotspot assay
[29] = target: Angiopoietin-1 receptor (Homo sapiens) (UniProt Q02763); assay: Inhibition of human TIE2/TEK using poly[Glu:Tyr] (4:1) peptide substrate at 1 uM by 33P Hotspot assay
[30] = target: High affinity nerve growth factor receptor (Homo sapiens) (UniProt P04629); assay: Inhibition of human TRKA using poly[Glu:Tyr] (4:1) peptide substrate at 1 uM by 33P Hotspot assay
[31] = target: T4, Non-receptor tyrosine-protein kinase TYK2 (Homo sapiens, UniProt P29597); assay: Inhibition of human TYK2 using KKSRGDYMTMQIG peptide substrate at 1 uM by 33P Hotspot assay
T4 sequence (P29597 whole entry): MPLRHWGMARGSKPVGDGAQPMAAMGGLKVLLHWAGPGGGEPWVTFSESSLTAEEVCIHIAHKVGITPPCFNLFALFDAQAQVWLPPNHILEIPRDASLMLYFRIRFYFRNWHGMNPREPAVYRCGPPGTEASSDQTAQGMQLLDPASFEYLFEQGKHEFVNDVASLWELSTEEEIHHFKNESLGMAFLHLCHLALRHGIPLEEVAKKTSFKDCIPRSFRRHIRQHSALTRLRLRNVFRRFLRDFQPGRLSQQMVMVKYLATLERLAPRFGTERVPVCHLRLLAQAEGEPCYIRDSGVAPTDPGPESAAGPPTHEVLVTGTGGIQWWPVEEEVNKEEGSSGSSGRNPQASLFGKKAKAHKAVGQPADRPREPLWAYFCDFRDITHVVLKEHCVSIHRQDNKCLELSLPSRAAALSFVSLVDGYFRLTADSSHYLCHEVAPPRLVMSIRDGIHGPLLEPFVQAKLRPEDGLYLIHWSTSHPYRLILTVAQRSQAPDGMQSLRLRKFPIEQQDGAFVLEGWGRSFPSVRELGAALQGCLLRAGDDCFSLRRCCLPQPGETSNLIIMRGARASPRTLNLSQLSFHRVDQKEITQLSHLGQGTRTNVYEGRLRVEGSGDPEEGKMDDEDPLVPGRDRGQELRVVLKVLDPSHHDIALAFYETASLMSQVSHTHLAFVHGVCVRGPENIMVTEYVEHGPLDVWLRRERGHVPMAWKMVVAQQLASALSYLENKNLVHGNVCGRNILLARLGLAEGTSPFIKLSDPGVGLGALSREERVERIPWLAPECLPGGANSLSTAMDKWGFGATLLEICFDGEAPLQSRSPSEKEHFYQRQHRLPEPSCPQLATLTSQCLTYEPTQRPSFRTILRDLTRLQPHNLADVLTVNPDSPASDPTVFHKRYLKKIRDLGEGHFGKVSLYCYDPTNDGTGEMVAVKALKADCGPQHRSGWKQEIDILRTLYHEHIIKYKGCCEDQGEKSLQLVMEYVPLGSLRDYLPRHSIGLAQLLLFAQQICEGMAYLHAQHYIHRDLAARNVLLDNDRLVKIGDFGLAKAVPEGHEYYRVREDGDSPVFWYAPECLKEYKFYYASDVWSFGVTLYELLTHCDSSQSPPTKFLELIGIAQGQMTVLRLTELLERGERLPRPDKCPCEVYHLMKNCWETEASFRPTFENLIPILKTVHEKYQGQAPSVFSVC

[32] = target: Wee1-like protein kinase (Homo sapiens) (UniProt P30291); assay: Inhibition of human WEE1 using myelin basic protein substrate at 1 uM by 33P Hotspot assay
[33] = target: T3, Tyrosine-protein kinase JAK2; assay: Inhibition of human JAK2 using poly[Glu:Tyr] (4:1) peptide substrate by 33P Hotspot assay
[34] = target: T4, Non-receptor tyrosine-protein kinase TYK2; assay: Inhibition of human TYK2 using KKSRGDYMTMQIG peptide substrate by 33P Hotspot assay
[35] = target: T2, Fibroblast growth factor receptor 1; assay: Inhibition of human FGFR1 using KKKSPGEYVNIEFG peptide substrate by 33P Hotspot assay
[36] = target: Tyrosine-protein kinase ABL1 (Homo sapiens, UniProt P00519); assay: Inhibition of human ABL1 using EAIYAAPFAKKK peptide substrate by 33P Hotspot assay
[37] = target: Serine/threonine-protein kinase Chk1 (Homo sapiens, UniProt O14757); assay: Inhibition of human CHK1 using KKKVSRSGLYRSPSMPENLNRPR peptide substrate by 33P Hotspot assay
[38] = target: Proto-oncogene tyrosine-protein kinase ROS (Homo sapiens, UniProt P08922); assay: Inhibition of human ROS/ROS1 using KKKSPGEYVNIEFG peptide substrate by 33P Hotspot assay
[39] = target: Glycogen synthase kinase-3 alpha (Homo sapiens) (UniProt P49840); conditions: at 1 µM
LNCaP = assay: cells; conditions: Homo sapiens, 72 h

SMILES: CN(C)CCNC(=O)CCc1ccc(Nc2ncc(Cl)c(NCC3CCCO3)n2)cc1 (stereo unspecified)
inhibition (Activated CDC42 kinase 1 [1]): 68%

SMILES: O=C(Nc1c(F)cccc1Cl)c1cnc(Nc2ccc(C3CCNCC3)cc2)nc1NCC1CCCO1 (racemic)
inhibition (Activated CDC42 kinase 1 [1]): 97%

SMILES: COc1ccc(Nc2ncc(C(=O)Nc3c(F)cccc3Cl)c(NCC3CCCO3)n2)cc1 (racemic)
inhibition (Activated CDC42 kinase 1 [1]): 68%

SMILES: O=C(O)Cc1ccc(Nc2ncc(Br)c(NCC3CCCO3)n2)cc1 (stereo unspecified)
inhibition (Activated CDC42 kinase 1 [1]): 61%

SMILES: CN1CCN(c2ccc(Nc3nccc(NCC4CCCO4)n3)cc2)CC1 (stereo unspecified)
inhibition (Activated CDC42 kinase 1 [1]): 16%

SMILES: O=C(O)CCc1ccc(Nc2ncc(Br)c(NCC3CCCO3)n2)cc1 (stereo unspecified)
inhibition (Activated CDC42 kinase 1 [1]): 74.5%

SMILES: O=C(O)CCc1ccc(Nc2ncc(Cl)c(NCC3CCCO3)n2)cc1 (stereo unspecified)
inhibition (Activated CDC42 kinase 1 [1]): 74%

SMILES: Oc1ccc(Nc2ncc(Cl)c(NCC3CCCO3)n2)cc1 (stereo unspecified)
inhibition (Activated CDC42 kinase 1 [1]): 65%

SMILES: CN1CCN(c2ccc(Nc3ncc(Br)c(NCC4CCCO4)n3)cc2)CC1 (stereo unspecified)
inhibition (Activated CDC42 kinase 1 [1]): 93%

SMILES: O=C(Nc1c(F)cccc1Cl)c1cnc(Nc2ccc(O)c(F)c2)nc1NCC1CCCO1 (stereo unspecified)
inhibition (Activated CDC42 kinase 1 [1]): 66%

SMILES: CN(C)CCOc1ccc(-c2oc3ncnc(NCC4SCCS4)c3c2-c2ccccc2)cc1
Ki [3]: 138 nM
Ki (Activated CDC42 kinase 1 [2]): 0.3 nM

SMILES: CN1CCN(c2ccc(Nc3ncc(Cl)c(NC[C@@H]4CCCO4)n3)cc2)CC1
inhibition (LAPC4): Active
t1/2 (Plasma): > 6 h
solubility [4]: 900 µg/mL (≈ 2230 µM)
IC50 (Activated CDC42 kinase 1 [2]): 82 nM
IC50 (cells): 4000 nM

SMILES: CN1CCN(c2ccc(Nc3ncc(Cl)c(NC[C@H]4CCCO4)n3)cc2)CC1
inhibition [5]: 4.7%
inhibition [6]: 75.9%
inhibition [7]: 45.1%
inhibition [8]: 23.1%
inhibition [9]: 84.8%
inhibition [10]: -7.7%
inhibition [11]: 26.3%
inhibition [12]: -2.8%
inhibition [13]: 31.9%
inhibition [14]: -1.1%
inhibition [15]: 1.9%
inhibition [16]: 86.4%
inhibition [17]: 41.3%
inhibition [18]: 0.4%
inhibition [19]: 46.6%
inhibition [20]: 98.6%
inhibition [21]: 67.3%
inhibition [22]: -5.6%
inhibition [23]: 24.1%
inhibition [24]: 42.7%
inhibition [25]: 3.6%
inhibition [26]: -0.8%
inhibition [27]: 26%
inhibition [28]: 71.8%
inhibition [29]: 32%
inhibition [30]: 63.2%
inhibition [31]: 98.9%
inhibition [32]: 12.4%
inhibition (LAPC4): Active
IC50 [33]: 6 nM
IC50 [34]: 5 nM
IC50 [35]: 160 nM
IC50 [36]: 206 nM
IC50 [37]: 154 nM
IC50 [3]: 136 nM
IC50 [38]: 124 nM
t1/2 (Plasma): > 6 h
solubility [4]: 1000 µg/mL (≈ 2480 µM)
inhibition [39]: 5.1%
IC50 (LNCaP): 1800 nM
IC50 (cells): 2000 nM

SMILES: Clc1cnc(Nc2ccc(C3CCNCC3)cc2)nc1NCC1CCCO1 (racemic)
inhibition (Activated CDC42 kinase 1 [1]): 79.5%

SMILES: c1ccc(-c2oc3ncnc(NC[C@@H]4CCCO4)c3c2-c2ccccc2)cc1
inhibition (LAPC4): Active

SMILES: CN1CCN(c2ccc(Nc3ncc(C(=O)Nc4c(F)cccc4Cl)c(NCC4CCCO4)n3)cc2)CC1 (stereo unspecified)
inhibition (Activated CDC42 kinase 1 [1]): 97%

The next lines start with the values.

inhibition (Activated CDC42 kinase 1 [1]): 82%
SMILES: Clc1cnc(Nc2ccc(N3CCNCC3)cc2)nc1NCC1CCCO1 (racemic)

inhibition (Activated CDC42 kinase 1 [1]): 85%
SMILES: O=C(Nc1c(F)cccc1Cl)c1cnc(Nc2ccc(O)cc2)nc1NCC1CCCO1 (racemic)

inhibition (Activated CDC42 kinase 1 [1]): 60%
SMILES: O=C(O)CCCc1ccc(Nc2ncc(Cl)c(NCC3CCCO3)n2)cc1 (stereo unspecified)

inhibition (Activated CDC42 kinase 1 [1]): 76%
SMILES: Oc1ccc(Nc2ncc(Br)c(NCC3CCCO3)n2)cc1F (stereo unspecified)

inhibition (Activated CDC42 kinase 1 [1]): 93%
SMILES: O=C(O)C1CCN(c2ccc(Nc3ncc(Cl)c(NCC4CCCO4)n3)cc2)CC1 (racemic)

inhibition (Activated CDC42 kinase 1 [1]): 76.5%
SMILES: O=C(O)Cc1ccc(Nc2ncc(Cl)c(NCC3CCCO3)n2)cc1 (stereo unspecified)

inhibition (Activated CDC42 kinase 1 [1]): 85%
SMILES: O=C(O)C1CCN(c2ccc(Nc3ncc(Br)c(NCC4CCCO4)n3)cc2)CC1 (racemic)

IC50 (Activated CDC42 kinase 1 [2]): 2 nM
SMILES: COC(C)(C)CCn1nc(Nc2c(C)cccc2C)c2cnc(Nc3ccccc3)nc21

inhibition (Activated CDC42 kinase 1 [1]): 84.5%
SMILES: Brc1cnc(Nc2ccc(C3CCNCC3)cc2)nc1NCC1CCCO1 (racemic)

inhibition (Activated CDC42 kinase 1 [1]): 82%
SMILES: O=C(Nc1c(F)cccc1Cl)c1cnc(Nc2ccc(N3CCOCC3)cc2)nc1NCC1CCCO1 (racemic)

inhibition (Activated CDC42 kinase 1 [1]): 90.5%
SMILES: CN1CCN(c2ccc(Nc3ncc(Cl)c(NCC4CCCO4)n3)cc2)CC1 (racemic)

inhibition (Activated CDC42 kinase 1 [1]): 92%
SMILES: O=C(O)CCC(=O)N1CCN(c2ccc(Nc3ncc(Br)c(NCC4CCCO4)n3)cc2)CC1 (stereo unspecified)

inhibition (Activated CDC42 kinase 1 [1]): 67%
SMILES: COc1ccc(Nc2ncc(Br)c(NCC3CCCO3)n2)cc1 (stereo unspecified)

inhibition (Activated CDC42 kinase 1 [1]): 89.5%
SMILES: O=C(Nc1c(F)cccc1Cl)c1cnc(Nc2ccc(N3CCNCC3)cc2)nc1NCC1CCCO1 (racemic)

inhibition (Activated CDC42 kinase 1 [1]): 89%
SMILES: Brc1cnc(Nc2ccc(N3CCOCC3)cc2)nc1NCC1CCCO1 (racemic)
